Patent US9290768B2, “Engineered microorganisms having resistance to ionic liquids” (priority 2012, dated 2016)

Tests used:
[1] = system: Enterobacter lignolyticus SCF1; experiment: Growth of soil isolate in ionic liquid (IL resistance testing); assay type: cell-based; conditions: Enterobacter lignolyticus SCF1, tropical rain forest soil isolate
Excerpt: In testing for IL resistance in a tropical rain forest soil community, a bacterium that grows in up to 8% 1-ethyl-3-methylimidazolium chloride ([C2mim]Cl) was isolated. It is a Gram-negative anaerobe that is both lignocellulolytic and halotolerant: Enterobacter lignolyticus SCF1 (DeAngelis, et al., Standards in Genomic Sciences 5:69-85, 2011; Khudyakov, et al., Global transcriptome response to ionic liquid by a tropical rain forest soil bacterium, Enterobacter lignolyticus. Proc. Natl. Acad. Sci USA, 2012). We examined SCF1 to identify genes contributing to IL tolerance using various analyses, including screening an E. coli fosmid library containing SCF1 genomic DNA.

[2] = system: E. coli containing an expression plasmid encoding the entire 2.6 kbp insert; experiment: Growth of E. coli carrying the 2.6 kbp SCF1 insert at different levels of [C2mim]Cl (shake flask growth assay); assay type: cell-based; conditions: E. coli clones comprising the mfs1 gene sequence; FIG. 3
Excerpt: FIG. 3 provides data from a 50-ml shake flask growth assay showing the resistance of E. coli containing the 2606 bp region to 4% and 6% [C2mim]Cl. Top panel: lines correspond to E. coli with common sequence; Enterobacter lignolyticus; and E. coli with empty vector; Middle panel (lines designated using hour 6 as a reference point): top line, E. coli with common sequence; middle line, Enterobacter lignolyticus; bottom line, E. coli with empty vector. Bottom panel: top line, E. coli with common sequence; middle line, Enterobacter lignolyticus; bottom line, E. coli with empty vector
SCF1 cells and E. coli containing an expression plasmid encoding the entire 2.6 kbp insert were tested at different levels of [C2mim]Cl.

TetR-repressor = experiment: MFS1-GFP fusion protein fluorescence (flow-cytometry), induction of repressor; assay type: cell-based, Enterobacter lignolyticus; conditions: FIG. 5
Experimental: FIG. 5 provides illustrative data showing that [C2mim]Cl-inducible TetR-repressor regulates MFS-expression. […] In the absence of this repressor, the intergenic promoter-region was constitutively turned on (left columns in bar graph compared to right columns).
An SCF1 library was constructed using 30-50 kb genomic DNA inserts in fosmid vectors, and E. coli transformants were plated on 2% [C2mim]Cl for initial selection. GFP-fluorescence was measured by flow-cytometry.
In the absence of this repressor, the intergenic promoter-region was constitutively turned on.

[3] = system: E. coli expressing the transporter gene; assay type: cell-based; conditions: ionic liquids at equimolar levels; MFS1-expressing E. coli
Experimental: Top line, MFS/[C2mim]Cl; Second line from top, MFS/C2mim]Oac; Second line from bottom, empty vector//[C2mim]Cl; Bottom, line empty vector/C2mim]Oac
In one experiment, E. coli expressing the transporter gene were also cultured in media differing only in the type of imidazolium ionic liquid (at equimolar levels), to assess the influence of aliphatic chain lengths of the cation, and the anions Cl—, BuSO4-, and acetate.

E. coli = experiment: Methyl viologen tolerance of E. coli expressing MFS1; assay type: cell-based; conditions: FIG. 6
Excerpt: Bottom solid lines are empty vector and tetR-mfs.
The closest homologue of MFS1 is a methyl viologen transporter protein in K. oxytoca. MFS1 conferred tolerance to this compound in E. coli (FIG. 6).

CCn1cc[n+](C)c1.[Cl-] [[C2mim]Cl, 1-ethyl-3-methylimidazolium chloride]
ionic liquid level in which the bacterium grows [1]: up to 8%
ionic liquid level at which the clones exhibited resistance [2]: at least 6%
induction of the TetR-repressor / regulation of MFS1-expression (TetR-repressor): inducible

CCCCn1cc[n+](C)c1.[Cl-] [BMIM-Cl, 1-butyl-3-methylimidazolium chloride]
tolerance of E. coli expressing the transporter gene to the ionic liquid [3]: lower tolerance than with EMIM-Cl

CC(=O)[O-].CCn1cc[n+](C)c1 [[C2mim]-Acetate, 1-ethyl-3-methylimidazolium acetate]
tolerance of E. coli expressing the transporter gene to the ionic liquid [3]: confers tolerance

C[n+]1ccc(-c2cc[n+](C)cc2)cc1 [methyl viologen]
tolerance of E. coli conferred by MFS1 (E. coli): confers tolerance
